Source: article PMC8305389, “Tuning Photodynamic Properties of BODIPY Dyes, Porphyrins’ Little Sisters” (Molecules, 2021)
Marks after values point to notes of the source that are not given here.

Legend:
[1] = test system: human cervical carcinoma (HeLa) cells; test: Photodynamic activity (phototoxicity) after light activation, Neutral Red uptake; type: cell-based; conditions: for EC50: Homo sapiens, light or radiation study, HeLa, 12 h incubation, λ > 455 nm, 15.3 mW cm−2, 15 min, 13.7 J cm−2; for PDT activity improved over S3AlOHPc (fold): comparison with literature value of S3AlOHPc (ref 37); for EC50 higher than temoporfin (fold): comparison with literature value of temoporfin (ref 37)
Method: (§1) The human cervical carcinoma (HeLa) and human melanoma (SK-MEL-28) cell lines were purchased from the American Type Cell Culture Collection (ATCC; Manassas, VA, USA). Both cell lines were cultured in Dulbecco’s modified Eagle’s medium (DMEM) without phenol red (Lonza, Verviers, Belgium) and supplemented with 10% heat-inactivated fetal bovine serum (Sigma-Aldrich (Merck, Darmstadt, Germany), 1% penicillin/streptomycin solution (Lonza), 10 mM HEPES buffer (Lonza), and 4 mM ultraglutamine I (alanyl-L-glutamine; Lonza). The cell lines were cultured in 75 cm^2 tissue culture flasks (TPP, Trasadingen, Switzerland) and maintained in a CO2 incubator at 37 °C in a humidified atmosphere of 5% CO2 and subcultured every 3−4 days. For the cytotoxicity experiments (phototoxicity and dark toxicity), cells were seeded into 96-well plates (TPP) at a density of 7.5 × 10^3 (HeLa and SK-MEL-28) cells per well for 24 h.
(§2) Stock solutions of the investigated compounds were prepared in DMSO at a concentration of 0.5 mM (4b) or 1 mM (all other compounds) and were sterilized by filtration through 0.22 μm syringe MCE filters. The stock solutions were diluted by the above-mentioned cell culture medium to the required concentrations. The maximum DMSO concentration in the medium in the experiments was 1% (2% in case of cpd. 4b). Cytoxicity of DMSO at corresponding concentrations (without studied compounds) was assessed in all cytotoxicity experiments as well—no toxicity against SK-MEL-28 or HeLa cells was observed.
(§3) For the photodynamic activity assessment experiments (phototoxicity), both HeLa and SK-MEL-28 cells were incubated overnight (12 h) with the studied compounds. The cells were then carefully and swiftly washed twice with a prewarmed sterile phosphate-buffered saline, fresh cell culture medium was added, and cells were subsequently irradiated for 15 min using a 450 W ozone-free Xe lamp (Newport; intensity reduced to 400 W). The lamp was equipped with a long-pass filter (Newport 20CGA-455) and an 8-cm water filter to cut off undesirable wavelengths and heat radiation, respectively (λ > 455 nm, 15.3 mW cm^−2, 15 min, 13.7 J cm^−2). Cellular viability was measured after an additional 24 h by the above-mentioned NR uptake assay. At least four independent experiments, each in triplicate, were performed.
(§4) The concentrations of the studied compounds that induced a 50% decrease in cellular viability after treatment under the dark conditions (TC50, the median toxic concentration) or after the photodynamic treatment (EC50, the median effective concentration) were calculated using GraphPad Prism software (version 9.1.2; GraphPad Software, Inc., San Diego, CA, USA) for each independent experiment. The data are presented as the means ± standard deviations of these values.

[2] = test system: human melanoma (SK-MEL-28) cells; test: as above; type: cell-based; conditions: for EC50: Homo sapiens, light or radiation study, 12 h incubation, λ > 455 nm, 15.3 mW cm−2, 15 min, 13.7 J cm−2
Method: as §1, §2, §3, §4

SK-MEL-28 cells = test: Dark toxicity (without irradiation), Neutral Red uptake; type: cell-based, human; conditions: 24 h in the dark, compounds precipitated over listed values
Method: as §1, §2
To assess dark toxicities (inherent toxicities of the studied compounds without irradiation), SK-MEL-28 cells were treated with studied PSs for 24 h in the dark. Viability was evaluated after two washing steps using the Neutral Red (NR; Sigma-Aldrich (Merck, Darmstadt, Germany) uptake assay, based on the ability of the living cells to incorporate NR into their intact lysosomes (concentration of NR in cell culture medium was 30 μg/mL and incubation time with NR was 2 h). The absorbance of soluble NR in cell lysate was measured at λ = 540 nm using a Tecan Infinite 200 M plate reader (Tecan, Männedorf, Switzerland). The viability of each experimental group was expressed as the percentage of the untreated controls incubated under the same conditions (100%). After staining (before lysis), the cells were briefly investigated under the microscope to verify changes in cellular morphology and the presence of NR in lysosomes (orange-red spots in the cells). These observations were in agreement with NR measurements.
as §4

[3] = Absorption and fluorescence measurements (quantum yield, lifetime); type: physicochemical; conditions: MeOH; for extinction coefficient (log ε): at λmax; for fluorescence quantum yield, absolute method (ΦF(absol)): integrating sphere; for fluorescence quantum yield, relative method (ΦF(relat)): rhodamin-G6 as reference; for fluorescence lifetime (τF): λexc = 506.1 nm
Method: The singlet oxygen quantum yields (ΦΔ) and the fluorescence quantum yields (ΦF) of tested samples in MeOH were determined using published comparative (relative) methods with rhodamin-G6 used as a reference for fluorescence (ΦF = 0.94 in EtOH [31]), and bengal rose as a reference for singlet oxygen determinations (ΦΔ = 0.76 in MeOH [32]). Singlet oxygen measurements were performed with 1,3-diphenylisobenzofuran as the chemical scavenger of singlet oxygen by monitoring its decomposition at 417 nm. The ΦF values were also determined by an absolute method using an integrating sphere in an FLS1000 fluorimeter (Edinburgh Instruments, Edinburgh, UK). Fluorescence lifetimes were measured on the same fluorimeter upon excitation by HPL510 laser (Edinburgh Instruments, λ = 506.1 nm).

absorption maximum (λmax) [3] [nm]	emission maximum (λF) [3] [nm]	extinction coefficient (log ε) [3]	fluorescence quantum yield, absolute method (ΦF(absol)) [3]	fluorescence quantum yield, relative method (ΦF(relat)) [3]	fluorescence lifetime (τF) [3] [ns]	SMILES	EC50 [1] [µM]	TC50/EC50, phototherapeutic index [2]	EC50 [2] [µM]	TC50, dark toxicity (SK-MEL-28 cells)	PDT activity improved over S3AlOHPc (fold) [1] [×]	EC50 higher than temoporfin (fold) [1] [×]
498	507	4.96	0.44	0.42	2.88	CC1=CC(C)=[N+]2C1=C(c1ccc(OCCCCCCCCN3C(=O)c4ccccc4C3=O)cc1)c1c(C)cc(C)n1[B-]2(F)F [2b, 1,3,5,7-Tetramethyl-8-{4-[8-(phthalimidyl)octyloxy]phenyl}-4,4-difluoro-4-bora-3a,4a-diaza-s-indacene]	2.4 ± 0.53	>2.64	3.79 ± 0.2	>10 ^b μM	–	–
530	546	4.36	0.022	0.024	0.17	CC1=C(I)C(C)=[N+]2C1=C(c1ccc(OCCCCCN3C(=O)c4ccccc4C3=O)cc1)c1c(C)c(I)c(C)n1[B-]2(F)F [3a, 2,6-Diiodo-1,3,5,7-tetramethyl-8-{4-[5-(phthalimidyl)pentyloxy]phenyl}-4,4-difluoro-4-bora-3a,4a-diaza-s-indacene]	0.14 ± 0.01	>192	0.052 ± 0.01	>10 ^b μM	10	3
530	547	3.70	0.030	0.023	0.17	CC1=C(I)C(C)=[N+]2C1=C(c1ccc(OCCCCCCCCN3C(=O)c4ccccc4C3=O)cc1)c1c(C)c(I)c(C)n1[B-]2(F)F [3b, 2,6-Diiodo-1,3,5,7-tetramethyl-8-{4-[8-(phthalimidyl)octyloxy]phenyl}-4,4-difluoro-4-bora-3a,4a-diaza-s-indacene]	1.57 ± 0.33	>8.13	1.23 ± 0.14	>10 ^b μM	–	–
525	540	4.72	0.21	0.19	1.37	CC1=C(Br)C(C)=[N+]2C1=C(c1ccc(OCCCCCN3C(=O)c4ccccc4C3=O)cc1)c1c(C)c(Br)c(C)n1[B-]2(F)F [4a, 2,6-Dibromo-1,3,5,7-tetramethyl-8-{4-[5-(phthalimidyl)pentyloxy]phenyl}-4,4-difluoro-4-bora-3a,4a-diaza-s-indacene]	0.21 ± 0.02	>123	0.081 ± 0.023	>10 ^b μM	10	3
523	538	4.04	0.23	0.22	1.54	CC1=C(Br)C(C)=[N+]2C1=C(c1ccc(OCCCCCCCCN3C(=O)c4ccccc4C3=O)cc1)c1c(C)c(Br)c(C)n1[B-]2(F)F [4b, 2,6-Dibromo-1,3,5,7-Tetramethyl-8-{4-[8-(phthalimidyl)octyloxy]phenyl}-4,4-difluoro-4-bora-3a,4a-diaza-s-indacene]	0.37 ± 0.07	>45.5	0.22 ± 0.05	>10 ^b μM	10	3
